Data reported in ChEMBL document CHEMBL4400510, “Synthesis and antitubercular evaluation of reduced lipophilic imidazo[1,2-a]pyridine-3-carboxamide derivatives” (Eur J Med Chem, 2019).
In brackets after ≈: the same amount, converted by molar mass.

Experiments:
[1] = tested on: Mycobacterium tuberculosis; experiment: Antitubercular activity against Mycobacterium tuberculosis H37Rv after 7 days by MABA method; assay type: functional; conditions: 168 h
[2] = Tmax in ICR mouse at 25 mg/kg, po by HPLC analysis; assay type: ADME, organism-based; conditions: in vivo
[3] = Half life in ICR mouse at 25 mg/kg, po by HPLC analysis; assay type: ADME, organism-based; conditions: in vivo
[4] = AUC (0 to infinity) in ICR mouse at 25 mg/kg, po by HPLC analysis; assay type: ADME, organism-based; parameters: dose 25 mg/kg, route oral, time infinity; conditions: in vivo
[5] = Cytotoxicity against African green monkey Vero cells measured after 72 hrs by MTT assay; assay type: cell-based; conditions: chlorocebus sabaeus
[6] = Aqueous solubility of the compound in 0.01 M HCl at pH 2 after 12 hrs by UV-based HPLC analysis; assay type: physicochemical
[7] = Cmax in ICR mouse at 25 mg/kg, po by HPLC analysis; assay type: ADME, organism-based; parameters: dose 25 mg/kg, route oral; conditions: in vivo

In the case of `O=c1nc(N2CCN(CC3CCCCC3)CC2)sc2c([N+](=O)[O-])cc(C(F)(F)F)cc12` [MACOZINONE], the MIC90 [1] was under 0.035 µM.

Compound `CCc1nc2cc(Cl)ccn2c1C(=O)NCc1ccc(N2CCN(CCC3CCCCC3)CC2)cc1` has an MIC90 [1] of 1.59 µM (≈ 0.81 µg/mL).

For `CCc1nc2ccc(Cl)cn2c1C(=O)NCc1ccc(N2CCN(Cc3ccc(OC(F)(F)F)cc3)CC2)cc1`, the MIC90 [1] was under 0.035 µM.

Work on `CO[C@H]1/C=C/O[C@@]2(C)Oc3c(C)c(O)c4c(O)c(c(/C=N/N5CCN(C)CC5)c(O)c4c3C2=O)NC(=O)/C(C)=C\C=C\[C@H](C)[C@H](O)[C@@H](C)[C@@H](O)[C@@H](C)[C@H](OC(C)=O)[C@@H]1C` [RIFAMPIN] yielded an MIC90 [1] of 0.038 µM (≈ 0.0313 µg/mL).

Compound `CCc1nc2cc(Cl)ccn2c1C(=O)NCc1ccc(N2CC3CCC2CN3CC2CCCCC2)cc1` (configuration not stated) has an MIC90 [1] of 1.48 µM (≈ 0.769 µg/mL).

With `NNC(=O)c1ccncc1` [ISONIAZID] the MIC90 [1] was 0.277 µM (≈ 0.038 µg/mL).

Compound `CCc1nc2cc(Cl)ccn2c1C(=O)NCc1ccc(N2CCN(CC3CCCCC3)CC2)cc1` has an MIC90 [1] of 0.84 µM (≈ 0.415 µg/mL).

Compound `CCc1nc2ccc(Cl)cn2c1C(=O)NCc1ccc(N2CCN(CCC3CCCCC3)CC2)cc1` has an MIC90 [1] of 0.103 µM (≈ 0.0523 µg/mL).

In the case of `CCc1nc2cc(Cl)ccn2c1C(=O)NCc1ccc(N2CC3CC2CN3CC2CCCCC2)cc1` (configuration not stated), the MIC90 [1] was 1.27 µM (≈ 0.641 µg/mL).

Compound `CCc1nc2ccc(Cl)cn2c1C(=O)NCc1ccc(N2CCN(CC3CCCCC3)CC2)cc1` has an MIC90 [1] of under 0.035 µM, a Tmax [2] of 0.25 h and a half-life [3] of 2.75 h. It also gave an AUC(0-inf) [4] of 53800 ng·h/mL, a CC50 at 72 h [5] of 53.5 µM and a solubility at 12 h [6] of 1230 µg/mL (≈ 2500 µM). For the same compound, the Cmax [7] was 24100 ng/mL.

Work on `CCc1nc2ccc(Cl)cn2c1C(=O)NCc1ccc(N2CC3CCC2CN3CC2CCCCC2)cc1` (configuration not stated) yielded an MIC90 [1] of 0.062 µM (≈ 0.0322 µg/mL).

With `CCc1nc2ccc(Cl)cn2c1C(=O)NCc1ccc(N2CC3CN(Cc4ccc(OC(F)(F)F)cc4)CC3C2)cc1` (configuration not stated) the MIC90 [1] was under 0.035 µM, the Tmax [2] was 0.83 h and the half-life [3] was 5.23 h. The AUC(0-inf) [4] was 19800 ng·h/mL, the CC50 at 72 h [5] was 20.5 µM and the solubility at 12 h [6] was 1130 µg/mL (≈ 1880 µM). For the same compound, the Cmax [7] was 2670 ng/mL.

`CCc1nc2ccc(Cl)cn2c1C(=O)NCc1ccc(N2CC3CN(CC4CCCCC4)CC3C2)cc1` (configuration not stated) showed an MIC90 [1] of under 0.035 µM, a Tmax [2] of 0.25 h and a half-life [3] of 4.27 h. For the same compound, the AUC(0-inf) [4] was 9050 ng·h/mL, the CC50 at 72 h [5] was over 100 µM and the solubility at 12 h [6] was 628 µg/mL (≈ 1210 µM). It also gave a Cmax [7] of 4180 ng/mL.

`CCc1nc2ccc(Cl)cn2c1C(=O)NCc1ccc(N2CCC3(CC2)CCN(c2ccc(OC(F)(F)F)cc2)CC3)cc1` gave an MIC90 [1] of under 0.035 µM, a Tmax [2] of 2.67 h and a half-life [3] of 12.3 h. For the same compound, the AUC(0-inf) [4] was 153000 ng·h/mL, the CC50 at 72 h [5] was 70.2 µM and the solubility at 12 h [6] was 1110 µg/mL (≈ 1770 µM). It also gave a Cmax [7] of 7420 ng/mL.

Work on `CCc1nc2ccc(Cl)cn2c1C(=O)NCc1ccc(N2CC3CN(c4ccc(OC(F)(F)F)cc4)CC3C2)cc1` (configuration not stated) yielded an MIC90 [1] of 0.058 µM (≈ 0.0339 µg/mL).

`CCc1nc2ccc(Cl)cn2c1C(=O)NCc1ccc(N2CCC(c3ccc(OC(F)(F)F)cc3)CC2)cc1` [TELACEBEC] gave an MIC90 [1] of under 0.035 µM and a CC50 at 72 h [5] of over 100 µM.

Work on `CCc1nc2ccc(Cl)cn2c1C(=O)NCc1ccc(N2CC3CC2CN3CC2CCCCC2)cc1` (configuration not stated) yielded an MIC90 [1] of 0.452 µM (≈ 0.229 µg/mL).
